Consider three compounds from ChEMBL document CHEMBL1146790, “Structural variations in keto-glutamines for improved inhibition against hepatitis A virus 3C proteinase” (Bioorg Med Chem Lett, 2004).

The test system of the test is 3C proteinase (Hepatitis A virus). Put plainly: Reversible inhibitory activity against Protease at a concentration 100 uM. Particulars: Hepatovirus A.

Each structure is given as a SMILES string.

The term inhibition denotes the relative decrease from the control value, in per cent. Low values mean a response near the control, high ones a response far below the control. Consider `CC(=O)N[C@@H](CC(C)C)C(=O)N[C@@H](C)C(=O)N[C@@H](C)C(=O)N[C@@H](CCC(=O)N(C)C)C(=O)Cn1nnc(C(=O)O)c1C(=O)O`, for which the inhibition was determined as 1%.

As to `COC(=O)c1nnn(CC(=O)[C@H](C[C@@H]2CCNC2=O)NC(=O)[C@H](C)NC(=O)[C@H](C)NC(=O)[C@H](CC(C)C)NC(C)=O)c1C(=O)OC`, the inhibition is 14%. Take `COC(=O)c1nnn(CC(=O)[C@H](CCC(=O)N(C)C)NC(=O)[C@H](C)NC(=O)[C@H](C)NC(=O)[C@H](CC(C)C)NC(C)=O)c1C(=O)OC`: the inhibition is 9%.
